Assay results published in paper PMC5823845 (Bioorganic & Medicinal Chemistry, 2018).

Legend:
CHO-K1 cells = assay: In vitro micronucleus test; type: cell-based; details: presence and absence of S9
Excerpt: Fluorescent imaging was used to obtain the results in the micronucleus test.

Cyp 450 2C9 = molecular target: T1, Cyp 450 2C9 (Homo sapiens, UniProt P11712); assay: Cytochrome P450 inhibition in human liver microsomes; type: in vitro ADME; details: human liver microsomes
T1 construct: tissue Cyprotex (CRO); host or cells: human liver microsomes
T1 sequence (P11712 whole entry): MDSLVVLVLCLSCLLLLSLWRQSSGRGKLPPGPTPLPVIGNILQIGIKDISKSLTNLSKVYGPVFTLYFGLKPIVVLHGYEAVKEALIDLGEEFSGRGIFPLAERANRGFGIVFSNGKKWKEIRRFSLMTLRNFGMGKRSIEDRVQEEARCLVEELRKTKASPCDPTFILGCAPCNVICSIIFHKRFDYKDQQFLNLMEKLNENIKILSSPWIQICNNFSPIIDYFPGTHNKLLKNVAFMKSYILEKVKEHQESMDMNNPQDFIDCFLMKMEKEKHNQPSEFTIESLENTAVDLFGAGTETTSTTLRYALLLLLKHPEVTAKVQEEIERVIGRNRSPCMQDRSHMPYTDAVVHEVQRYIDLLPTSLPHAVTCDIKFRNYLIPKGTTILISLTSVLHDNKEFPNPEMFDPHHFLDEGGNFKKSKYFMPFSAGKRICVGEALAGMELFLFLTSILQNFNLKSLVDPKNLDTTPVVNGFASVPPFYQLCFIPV
Experimental: (§1) The five main cytochrome P450 isoforms (CYP1A, CYP2C9, CYP2C19, CYP2D6 and CYP3A4) were investigated in the P450 inhibition assay. […] At the end of the incubation, the formation of the metabolite was monitored by LC-MS/MS (or fluorescence in the case of CYP1A) at each of the test compound concentrations.

Cyp 450 2D6 = molecular target: T2, Cyp 450 2D6 (Homo sapiens, UniProt P10635); assay: as above; type: in vitro ADME; details: human liver microsomes
T2 construct: tissue Cyprotex (CRO); host or cells: human liver microsomes
T2 sequence (P10635 whole entry): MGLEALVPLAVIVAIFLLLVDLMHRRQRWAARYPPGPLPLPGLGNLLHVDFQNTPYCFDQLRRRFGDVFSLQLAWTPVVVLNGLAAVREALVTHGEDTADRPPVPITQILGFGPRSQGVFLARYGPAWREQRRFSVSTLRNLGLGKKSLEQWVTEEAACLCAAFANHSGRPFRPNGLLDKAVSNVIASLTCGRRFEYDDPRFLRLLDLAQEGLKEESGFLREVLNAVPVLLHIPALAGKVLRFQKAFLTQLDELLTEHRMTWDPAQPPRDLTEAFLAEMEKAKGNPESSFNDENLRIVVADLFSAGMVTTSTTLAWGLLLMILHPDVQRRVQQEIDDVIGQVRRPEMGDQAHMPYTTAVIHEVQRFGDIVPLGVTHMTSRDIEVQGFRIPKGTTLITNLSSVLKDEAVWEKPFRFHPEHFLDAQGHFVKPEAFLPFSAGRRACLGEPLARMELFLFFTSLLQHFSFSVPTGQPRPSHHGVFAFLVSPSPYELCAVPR
Experimental: as §1

Cyp 450 2C19 = molecular target: T3, Cyp 450 2C19 (Homo sapiens, UniProt P33261); assay: as above; type: in vitro ADME; details: human liver microsomes
T3 construct: tissue Cyprotex (CRO); host or cells: human liver microsomes
T3 sequence (P33261 whole entry): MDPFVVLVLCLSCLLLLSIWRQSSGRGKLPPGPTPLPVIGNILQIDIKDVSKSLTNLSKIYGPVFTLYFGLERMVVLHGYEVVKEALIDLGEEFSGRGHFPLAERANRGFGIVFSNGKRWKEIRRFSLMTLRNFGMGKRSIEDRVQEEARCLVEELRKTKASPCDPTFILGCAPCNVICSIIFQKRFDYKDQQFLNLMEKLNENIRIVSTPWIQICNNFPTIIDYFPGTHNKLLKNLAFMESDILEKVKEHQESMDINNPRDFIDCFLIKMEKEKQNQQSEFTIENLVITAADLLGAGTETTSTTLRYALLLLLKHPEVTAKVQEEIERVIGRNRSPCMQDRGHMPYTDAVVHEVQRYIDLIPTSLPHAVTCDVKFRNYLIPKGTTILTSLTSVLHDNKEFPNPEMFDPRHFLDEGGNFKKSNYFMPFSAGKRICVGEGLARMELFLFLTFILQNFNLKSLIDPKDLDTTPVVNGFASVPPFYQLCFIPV
Experimental: as §1

Cyp 450 3A4 = molecular target: T4, Cyp 450 3A4 (Homo sapiens, UniProt P08684); assay: as above; type: in vitro ADME; details: human liver microsomes
T4 construct: tissue Cyprotex (CRO); host or cells: human liver microsomes
T4 sequence (P08684 whole entry): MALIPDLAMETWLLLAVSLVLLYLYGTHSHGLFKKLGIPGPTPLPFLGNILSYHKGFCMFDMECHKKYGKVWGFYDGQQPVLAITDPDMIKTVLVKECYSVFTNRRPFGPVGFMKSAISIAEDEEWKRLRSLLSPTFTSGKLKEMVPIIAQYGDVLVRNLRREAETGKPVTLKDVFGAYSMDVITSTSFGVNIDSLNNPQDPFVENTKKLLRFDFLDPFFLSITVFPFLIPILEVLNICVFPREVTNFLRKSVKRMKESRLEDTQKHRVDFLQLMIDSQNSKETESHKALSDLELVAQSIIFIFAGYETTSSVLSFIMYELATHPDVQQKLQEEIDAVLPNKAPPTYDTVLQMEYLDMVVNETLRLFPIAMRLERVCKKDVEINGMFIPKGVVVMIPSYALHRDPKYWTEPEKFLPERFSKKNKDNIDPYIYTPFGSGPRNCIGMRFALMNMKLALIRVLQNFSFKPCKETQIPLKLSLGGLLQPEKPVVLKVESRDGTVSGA
Experimental: as §1

Cyp 450 1A2 = molecular target: T5, Cyp 450 1A2 (Homo sapiens, UniProt P05177); assay: as above; type: in vitro ADME; details: human liver microsomes
T5 construct: tissue Cyprotex (CRO); host or cells: human liver microsomes
T5 sequence (P05177 1-516): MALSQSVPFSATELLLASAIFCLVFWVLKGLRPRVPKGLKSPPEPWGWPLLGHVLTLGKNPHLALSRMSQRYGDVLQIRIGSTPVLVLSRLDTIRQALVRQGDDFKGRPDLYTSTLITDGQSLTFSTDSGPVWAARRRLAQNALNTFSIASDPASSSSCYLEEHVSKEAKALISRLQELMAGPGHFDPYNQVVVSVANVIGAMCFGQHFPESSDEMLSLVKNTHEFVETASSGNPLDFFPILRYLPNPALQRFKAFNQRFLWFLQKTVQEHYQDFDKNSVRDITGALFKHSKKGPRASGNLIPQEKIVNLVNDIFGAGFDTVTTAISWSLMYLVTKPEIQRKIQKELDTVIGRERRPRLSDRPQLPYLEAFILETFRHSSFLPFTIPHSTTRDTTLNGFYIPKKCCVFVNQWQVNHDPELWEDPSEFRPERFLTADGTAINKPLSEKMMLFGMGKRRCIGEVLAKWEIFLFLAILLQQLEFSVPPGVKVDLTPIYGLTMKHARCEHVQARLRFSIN
Experimental: as §1

[1] = Plasma protein binding, equilibrium dialysis; type: in vitro ADME
Experimental: Equilibrium dialysis is used to determine the extent of binding of a compound to plasma proteins. A semi-permeable membrane separates a protein-containing compartment from a protein-free compartment. The system is allowed to equilibrate at 37 °C. The test compound present in each compartment is quantified by LC-MS/MS. The extent of binding is reported as a fraction unbound (fu) value which is calculated as detailed below;
fu = 1 – (PC - PF /PC). PC = Test compound concentration in protein-containing compartment. PF = Test compound concentration in the protein-free compartment.

[2] = Stability and intrinsic clearance in cryopreserved hepatocytes; details: mouse
Experimental: Reactions were terminated by addition of 100 μL of acetonitrile containing carbamazepine as the analytical internal standard. Samples were centrifuged and the supernatant fractions analysed by LC-MS/MS. The instrument responses (peak heights) were referenced to the zero time-point samples (as 100%) in order to determine the percentage of compound remaining. Ln plots of the % remaining, for each compound, were used to determine the half-life for the hepatocyte incubations.

PK studies in rats = type: in vivo, Sprague-Dawley rats
Experimental: The Test Items were orally administered at a dose of 10 mg/kg and a dosing volume of 10 mL/kg. […] The Test Items were intravenously administered at a dose of 0.5 mg/kg and a dosing volume of 2 mL/kg. […] Whole blood concentrations of the Test Items were measured using LC-MS/MS and selected pharmacokinetic parameters calculated using Pharsight WinNonLin software. For furthers details see Supplementary data file.

HEPG2 cells = assay: High-content cell toxicity screen in HEPG2 cells; type: cell-based; details: concentrations up to 50 μM
Experimental: Effect on the cell or mitochondrial viability markers in HepG2 cells were tested for compounds up to 50 μM. HepG2 cells were plated on 96-well tissue culture treated black walled clear bottomed polystyrene plates at 0:3 _ 104 cells in 100_L per well. After 24 hr the cells were dosed with the test compound at a range of concentrations (see Assay Summary for details). At the end of the incubation period, the cells were loaded with the relevant dye/antibody for each cell health marker. The plates were then scanned using an automated fluorescent cellular imager, ArrayScanr VTI (Thermo Scientific Cellomics).

5HT2B site = molecular target: T6, 5HT2B site (Homo sapiens, UniProt P41595); assay: CEREP selectivity screen, binding assay; details: read-out: highest inhibition, 5HT2B site
T6 construct: Cerep (CRO)
T6 sequence (P41595 whole entry): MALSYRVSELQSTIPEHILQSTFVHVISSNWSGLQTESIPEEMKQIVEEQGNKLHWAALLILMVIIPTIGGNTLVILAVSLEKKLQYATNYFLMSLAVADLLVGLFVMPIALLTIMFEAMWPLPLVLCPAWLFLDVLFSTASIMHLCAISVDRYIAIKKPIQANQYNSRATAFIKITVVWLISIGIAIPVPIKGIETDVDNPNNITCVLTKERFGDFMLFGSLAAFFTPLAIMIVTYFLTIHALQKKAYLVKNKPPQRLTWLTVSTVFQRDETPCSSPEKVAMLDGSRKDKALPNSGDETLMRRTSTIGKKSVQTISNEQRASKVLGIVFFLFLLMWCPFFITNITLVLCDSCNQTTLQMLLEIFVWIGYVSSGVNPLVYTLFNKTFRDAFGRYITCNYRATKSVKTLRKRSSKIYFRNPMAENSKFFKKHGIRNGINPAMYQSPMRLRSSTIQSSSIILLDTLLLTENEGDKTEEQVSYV
Experimental: (§2) The CEREP selectivity screen was performed on the following targets:
(§3) A1, A2A, A3, α1, α2, β1, β2, AT1, AT2, BZD central, BZD periph, BB, B2, CGRP, CB1, CCK1, CCK2, D1, D2S, D3, D4.4, D5, ETA, ETB, GABA, GAL1, GAL2, PDGF, CXCR2, CCR1, TNF- α, H1, H2, MC4, MT1, M1, M2, M3, M4, M5, NK1, NK2, NK3,Y1, Y2, NTS1(NT1), δ2, κ, µ, NOP(ORL1) , PAC1(PACAP), PPARγ, PCP, EP2, EP4, IP(PGI2,), P2X, P2Y,5-HT1A, 5-HT1B, 5-HT2A, 5-HT2B, 5-HT2C, 5-HT3, 5-HT5A, 5-HT6, 5-HT7, σ, sst, GR, ER, VPAC1(VIP1), V1a, Ca^2+ channel (L), KV channel, KV channel, SKCa channel, Na^+ channel, Cl^- channel, norepinephrine transporter. dopamine transporter, 5-HT transporter.

Solubility in water = type: physicochemical; details: as the sodium salt in water at 35 °C
[3] = tested on: panel of 120 other receptors, channels and enzymes; assay: CEREP selectivity screen, binding and enzyme assays; details: 10 μM
Experimental: as §2, §3
sPLA2, COX1, COX2, 5-lipoxygenase, 12-lipoxygenase, inducible NOS, PDE2A1, PDE3A, PDE4D2, PDE5, PDE6, ACE, ACE-2, BACE-2, ECE-1, elastase, caspase-3, caspase-8, cathepsin D, cathepsin L, neutral endopeptidase, MMP-1, MMP-3, MMP-9, tryptase, TACE, phosphatase 1B, phosphatase CDC25A, Scr kinase, acetylcholinesterase, MAO-A, MAO-B, CENP-E, Eg5, HDAC3, HDAC4, HMG-CoA reductase, HDAC11, surtuin-1, surtuin-2.

For `CCOc1c(Cl)cc(C(=O)Nc2ccc(C(=O)O)c(C)c2)cc1OC(C)C` [Compound 56, 4-(3-Chloro-4-ethoxy-5-isopropoxybenzamido)-2-methylbenzoic acid], the “in vitro micronucleus test” value (CHO-K1 cells) was “negative”, the IC50 (Cyp 450 2C9) was over 25 µM and the IC50 (Cyp 450 2D6) was over 25 µM. The IC50 (Cyp 450 2C19) was over 25 µM, the IC50 (Cyp 450 3A4) was over 25 µM and the IC50 (Cyp 450 1A2) was over 25 µM. For the same compound, the fraction unbound ([1]; human) was 0.07, the fraction unbound ([1]; mouse) was 0.09 and the half-life at 1 μM [2] was 3.73 h. It also gave a half-life at 30 μM [2] of over 5 h, a hepatocyte CLint at 1 μM [2] of 12 µL/min/1e6 cells and a hepatocyte CLint at 30 μM [2] of under 9 µL/min/1e6 cells. The “rat pK AUC po” value (PK studies in rats; 10 mg/kg po, 8% Ethanol/92% PEG-400, n = 4) was 70,765 ng·min mL^−1, the “rat pK Cl” value (PK studies in rats; iv 0.5 mg/kg, n = 4) was 7 mL/kg/min and the bioavailability (PK studies in rats; male, Sprague-Dawley, whole blood, rat, 10 mg/kg po vs 0.5 mg/kg iv, n = 4, read-out: rat pK F%) was 40%. The “effect on cell or mitochondrial viability markers” value (HEPG2 cells) was “no effect”, the inhibition at 10 µM (5HT2B site) was 25% and the solubility (Solubility in water) was over 5000 µg/mL. For the same compound, the “interactions with panel of 120 receptors, channels and enzymes” value [3] was “no significant interactions” and the “inhibition (or stimulation), all panel targets” value ([3]; two independent experiments) was at most 25%.
